# Key:
# [1] = system: Escherichia coli KY 8348; assay: Agar dilution MIC, pH 7.2 (Table 2); format: cell-based; details: KY8348, E. coli KY 8348, produces gentamicin acetyltransferase Type I, read-out: Minimum Inhibitory Concentration
# [2] = system: Sarcina lutea ATCC 9341; assay: Agar dilution MIC, pH 7.2 (Table 2); format: cell-based; details: Micrococcus luteus, ATCC9341; Sarcina lutea ATCC 9341; agar dilution, pH 7.2; read-out: Minimum Inhibitory Concentration
# [3] = Acute toxicity in mice, intravenous injection; details: mouse, in vivo
# [4] = system: Escherichia coli having R factors; assay: Antibacterial activity against R factor strains; format: cell-based; details: E. coli having R factors, resistant to known aminoglycoside antibiotics
# [5] = system: Staphylococcus aureus 209 P; assay: Agar dilution MIC, pH 7.2 (Table 2); format: cell-based; details: S. aureus 209 P, agar dilution, pH 7.2, read-out: Minimum Inhibitory Concentration
# [6] = system: Bacillus subtilis ATCC 6633; assay: Agar dilution MIC, pH 7.2 (Table 2); format: cell-based; details: ATCC6633, B. subtilis ATCC 6633, agar dilution, pH 7.2, read-out: Minimum Inhibitory Concentration
# [7] = system: Staphylococcus aureus Smith; assay: Agar dilution MIC, pH 7.2 (Table 2); format: cell-based; details: S. aureus Smith, agar dilution, pH 7.2, read-out: Minimum Inhibitory Concentration
# [8] = system: Krebsiella pneumoniae ATCC 10031; assay: Agar-dilution MIC, pH 8.0 (Table 1); format: cell-based; details: Klebsiella pneumoniae, ATCC10031; K. pneumoniae ATCC 10031; agar-dilution, pH 8.0; read-out: Minimum Inhibitory Concentration
# [9] = system: Pseudomonas aeruginosa BMH 1; assay: Agar dilution MIC, pH 7.2 (Table 2); format: cell-based; details: BMH1, P. aeruginosa BMH 1, agar dilution, pH 7.2, read-out: Minimum Inhibitory Concentration
# [10] = system: Salmonella typhosa ATCC 9992; assay: Agar-dilution MIC, pH 8.0 (Table 1); format: cell-based; details: Salmonella enterica, pH 8, read-out: Minimum Inhibitory Concentration
# [11] = system: Pseudomonas aeruginosa KY 8510; assay: Agar dilution MIC, pH 7.2 (Table 2); format: cell-based; details: KY8510, P. aeruginosa KY 8510, produces kanamycin acetyltransferase, agar dilution, pH 7.2, read-out: Minimum Inhibitory Concentration
# [12] = system: Bacillus subtilis No. 10707; assay: Agar-dilution MIC, pH 8.0 (Table 1); format: cell-based; details: B. subtilis No. 10707, agar-dilution, pH 8.0, read-out: Minimum Inhibitory Concentration
# [13] = system: Escherichia coli KY 8327; assay: Agar-dilution MIC, pH 8.0 (Table 1); format: cell-based
# Description: (§1) The former bacterium inactivates kanamycins and gentamicins by adenylation, and the latter inactivates gentamicins by acetylation.
# [14] = system: Escherichia coli KY 8348; assay: Agar-dilution MIC, pH 8.0 (Table 1); format: cell-based
# Description: as §1
# [15] = system: Escherichia coli T-2; assay: Agar dilution MIC, pH 7.2 (Table 2); format: cell-based; details: T2, E. coli T-2, agar dilution, pH 7.2, read-out: Minimum Inhibitory Concentration
# [16] = system: Escherichia coli KY 8327; assay: Agar dilution MIC, pH 7.2 (Table 2); format: cell-based; details: KY8327, E. coli KY 8327, read-out: Minimum Inhibitory Concentration
# [17] = system: Proteus mirabilis 1287; assay: Agar dilution MIC, pH 7.2 (Table 2); format: cell-based; details: Proteus mirabilis; P. mirabilis 1287; agar dilution, pH 7.2; read-out: Minimum Inhibitory Concentration
# [18] = system: Pseudomonas aeruginosa BMH 1; assay: Agar-dilution MIC, pH 8.0 (Table 1); format: cell-based; details: BMH1, P. aeruginosa BMH 1, agar-dilution, pH 8.0, read-out: Minimum Inhibitory Concentration
# [19] = system: Escherichia coli T-5; assay: Agar dilution MIC, pH 7.2 (Table 2); format: cell-based; details: T5, E. coli T-5, agar dilution, pH 7.2, read-out: Minimum Inhibitory Concentration
# [20] = system: Escherichia coli ATCC 26; assay: Agar-dilution MIC, pH 8.0 (Table 1); format: cell-based; details: ATCC26, E. coli ATCC 26, agar-dilution, pH 8.0, read-out: Minimum Inhibitory Concentration
# [21] = system: Proteus vulgaris 6897; assay: Agar dilution MIC, pH 7.2 (Table 2); format: cell-based; details: Proteus vulgaris; P. vulgaris 6897; agar dilution, pH 7.2; read-out: Minimum Inhibitory Concentration
# [22] = system: Providencia sp. 164; assay: Agar dilution MIC, pH 7.2 (Table 2); format: cell-based; details: Providencia sp. 164, produces gentamicin acetyltransferase Type II, read-out: Minimum Inhibitory Concentration
# [23] = system: Escherichia coli KY 8349; assay: Agar dilution MIC, pH 7.2 (Table 2); format: cell-based; details: KY8349, E. coli KY 8349, produces neomycin-kanamycin phosphotransferase Type I, read-out: Minimum Inhibitory Concentration
# [24] = system: Klebsiella pneumoniae No. 8045; assay: Agar dilution MIC, pH 7.2 (Table 2); format: cell-based; details: K. pneumoniae No. 8045, agar dilution, pH 7.2, read-out: Minimum Inhibitory Concentration
# [25] = system: Proteus vulgaris ATCC 6897; assay: microbe, parasite or virus in culture; format: cell-based; details: ATCC6897, P. vulgaris ATCC 6897, agar-dilution, pH 8.0, read-out: Minimum Inhibitory Concentration
# [26] = system: Escherichia coli KY 8321; assay: Agar dilution MIC, pH 7.2 (Table 2); format: cell-based; details: KY8321, E. coli KY 8321, produces gentamicin adenyltransferase and neomycin-kanamycin phosphotransferase Type II, agar dilution, pH 7.2, read-out: Minimum Inhibitory Concentration
# [27] = system: Staphylococcus aureus ATCC 6538P; assay: Agar-dilution MIC, pH 8.0 (Table 1); format: cell-based; details: ATCC6538P, S. aureus ATCC 6538P, agar-dilution, pH 8.0, read-out: Minimum Inhibitory Concentration
# [28] = system: Pseudomonas aeruginosa KY 8516; assay: Agar dilution MIC, pH 7.2 (Table 2); format: cell-based; details: KY8516, P. aeruginosa KY 8516, probably produces kanamycin acetyltransferase, agar dilution, pH 7.2, read-out: Minimum Inhibitory Concentration
# [29] = system: strains of the aforementioned resistant bacteria; assay: Protection tests against infections induced by resistant bacteria; format: in vivo
# [30] = system: Pseudomonas aeruginosa KY 8511; assay: Agar dilution MIC, pH 7.2 (Table 2); format: cell-based; details: KY8511, P. aeruginosa KY 8511, produces gentamicin acetyltransferase Type I and neomycin-kanamycin phosphotransferase Type I, agar dilution, pH 7.2, read-out: Minimum Inhibitory Concentration
structure (smiles),measurement,setting,value
"CNC[C@@H]1CC[C@@H](N)[C@@H](O[C@H]2[C@H](O)[C@@H](O[C@H]3OC[C@](C)(O)[C@H](NC)[C@H]3O)[C@H](NC(=O)[C@@H](O)CCN)C[C@@H]2N)O1 [Compound IV, 1-N-[L-(-)-α-hydroxy-γ-aminobutyryl] XK-62-2]",MIC,[1],0.1 µg/mL
same,MIC,[2],0.4 µg/mL
same,LD50,[3],250 mg/kg
same,antibacterial activity (in words),[4],strong anti-bacterial activity
same,MIC,[5],0.1 µg/mL
same,MIC,[6],0.1 µg/mL
same,MIC,[7],0.1 µg/mL
same,MIC,[8],0.008 µg/mL
same,MIC,[9],1.56 µg/mL
same,MIC,[10],0.008 µg/mL
same,MIC,[11],3.12 µg/mL
same,MIC,[12],0.004 µg/mL
same,antibacterial activity (in words),"[13]; E. coli KY 8327, from Table 1",strong anti-bacterial activity
same,MIC,"[13]; Escherichia coli, KY8327, E. coli KY 8327, produces gentamicin adenyltransferase, agar-dilution, pH 8.0, read-out: Minimum Inhibitory Concentration",0.016 µg/mL
same,antibacterial activity (in words),"[14]; E. coli KY 8348, from Table 1",strong anti-bacterial activity
same,MIC,"[14]; Escherichia coli, KY8348, E. coli KY 8348, produces gentamicin acetyltransferase Type I, agar-dilution, pH 8.0, read-out: Minimum Inhibitory Concentration",0.004 µg/mL
same,MIC,[15],0.4 µg/mL
same,MIC,[16],0.2 µg/mL
same,MIC,[17],3.12 µg/mL
same,MIC,[18],2.08 µg/mL
same,MIC,[19],0.4 µg/mL
same,MIC,[20],0.004 µg/mL
same,MIC,[21],3.12 µg/mL
same,MIC,[22],12.5 µg/mL
same,MIC,[23],0.2 µg/mL
same,MIC,[24],0.2 µg/mL
same,MIC,[25],0.065 µg/mL
same,MIC,[26],0.2 µg/mL
same,MIC,[27],0.016 µg/mL
same,MIC,[28],3.12 µg/mL
same,antibacterial activity in protection tests,"[29]; infections induced by resistant bacteria, versus gentamicin antibiotics and XK-62-2",much higher antibacterial activity than the gentamicin antibiotics and XK-62-2
same,retention of the α-hydroxy-γ-aminobutyryl group in vivo,"[29]; protection tests, in vivo",maintain the α-hydroxy-γ-aminobutyryl group in vivo
same,MIC,[30],3.12 µg/mL

# — patent US4055715A, “Method of producing 1-N-[L-(-)-α-hydroxy-γ-aminobutyryl]XK-62-2” (Abbott Laboratories, priority 1974, dated 1977)
